Values belong to the molecule of their own block, whether it stands above or below them. Where a SMILES comes first, the peptide text is derived from it. [ ]: non-standard residue; d: D form. ξ: configuration not given here. ξLac(3-iPr) = CC(C)CC(O)C(=O)O; NMeV = CN[C@H](C(=O)O)C(C)C; βAla = NCCC(=O)O
Assays:
[1] = Hematologic parameters after single intragastric dose; format: in vivo, mice; settings: 3 h
Method: (§1) Mice were intragastrically administrated with a single dose of isaridin E (100 mg/kg) or vehicle at 3 h before anesthesia. Whole blood was drawn from the abdominal aorta and collected in K2EDTA anticoagulant tubes to evaluate the hematologic parameters with an automatic hematology analyzer (BC-2800 vet, Mindray, Shenzhen, China). The citrated blood was centrifuged at 1500× g (25 °C) for 15 min to obtain the platelet-poor plasma (PPP). PPP was then used to measure the coagulation parameters, including ATPP, PT, TT, and FIB, with an automated coagulation analyzer (RAC-030, Rayto, Shenzhen, China).

washed mouse platelets [2] = experiment: Collagen-induced platelet aggregation; format: cell-based; settings: collagen 1 μg/mL, p > 0.05
Method: (§2) Washed platelets were prepared as previously described by Zhongren Ding et al.. Whole blood was collected from the abdominal aorta using a syringe containing 3.8% sodium citrate (9:1, V/V) as an anticoagulant. Citrated blood (2 mL) was centrifuged at room temperature at 300× g for 2 min to obtain platelet-rich plasma (PRP). Platelets were obtained by the further centrifugation of PRP at 700× g for 2 min, and resuspended in Tyrode’s buffer (138 mM of NaCl, 2.7 mM of KCl, 1 mM of MgCl2, 3 mM of NaH2PO4, 5 mM of glucose, 10 mM of HEPES, pH 7.4) with 0.02 U/mL apyrase (A6410, Sigma-Aldrich, St. Louis, MO, USA) to a density of 3 × 10^8 of platelets/mL for use.
(§3) The platelet aggregation and release assay were performed as previously reported. […] The platelet aggregation was assessed using a lumi-aggregometer (700-2, Chrono-Log, Havertown, PA, USA) with a stirring speed of 1200 rpm at 37 °C. The release of ATP was simultaneously monitored using Luciferin/luciferase reagent (395, Chrono-Log, Havertown, PA, USA). Aggregation traces and ATP release traces were monitored continuously for at least 10 min.

[3] = Coagulation parameters (APTT, PT, TT, FIB) after single intragastric dose; format: in vivo, mice; settings: 3 h
Method: as §1

washed mouse platelets [4] = experiment: LDH (lactate dehydrogenase) release cytotoxicity assay; format: cell-based; settings: for LDH Release (%): 37 °C, 30 min, n = 6
Excerpt: We first examined whether isaridin E has cytotoxic effects on washed mouse circulating platelets using the LDH (lactate dehydrogenase) cytotoxicity assay kit. Destruction of the cell membrane caused by apoptosis or necrosis leads to the release of enzymes in the cytoplasm into the culture medium, including LDH, with stable enzyme activity. Therefore, the quantitative analysis of the percentage of LDH leakage from the platelets is commonly used to evaluate the cytotoxic effects of tested compounds, and LDH > 10% was considered cytotoxic. […] Next, we tested whether treatment with isaridin E for 3 h (a single intragastric administration at 100 mg/kg) affects hematological and coagulation parameters in vivo.
as §2
The possible cytotoxic effect of isaridin E on mouse platelets was assessed with the LDH Cytotoxicity Assay Kit (C0016, Beyotime Biotechnology, Haimen, China). Washed mouse platelets were pretreated with vehicle or different concentrations of isaridin E ([…], 12.5, 25, 50, 100, 200, or 400 μM) at 37 °C for 30 min, and then collected for detection following the manufacturer’s instructions. The cytotoxic effects were determined using the percentage of LDH leakage released from the platelets (% LDH release).

PI3K = experiment: ADP-induced phosphorylation of PI3K, Western blot; format: cell-based, human; settings: 50 μM, Meg-01 cells
Method: (§4) Western blotting was performed as described in our previous study. Meg-01 cells were lysed with protein lysis buffer (P0013, Beyotime Biotechnology, Haimen, China) containing a protease inhibitor cocktail (539131, Millipore, Billerica, MA, USA) and phosphatase inhibitor cocktail (K1012, APExBIO, Houston, TX, USA). The samples (20 μg) were then separated by 8% SDS-PAGE gel and transferred onto PVDF membranes. The PDVF membranes were incubated with primary antibodies at 4 °C for 12 h. After incubating with the appropriate HRP-conjugated secondary antibodies (7076, 7074, Cell Signaling Technology, Danvers, MA, USA), blots were detected with chemiluminescent HRP substrate (P90719, Millipore, Billerica, MA, USA) using the ChemiDoc XRS+ system (BIO-RAD, Hercules, CA, USA). Primary antibodies against the following antigens were listed: PI3K (4257, Cell Signaling Technology, Danvers, MA, USA), Phospho-PI3K (ab226842, Abcam, Cambridge, UK), Akt (4691, Cell Signaling Technology, Danvers, MA, USA), Phospho-Akt (4056, Cell Signaling Technology, Danvers, MA, USA), and β-actin (66009-1, Proteintech, Rosemont, IL, USA).

washed mouse platelets [5] = experiment: ADP-induced platelet activation, CD62p surface expression by flow cytometry; format: cell-based; settings: 30 min, then 50 μM ADP 5 min, vehicle 35.6 ± 1.7%
Method: as §2
Washed mouse platelets were pretreated with vehicle or different concentrations of isaridin E for 30 min at 37 °C, followed by stimulation with 50 μM ADP for 5 min. Platelets were then stained with FITC-conjugated anti-CD41 antibody (133904, Biolegend, San Diego, CA, USA) and PE-conjugated anti-CD62p antibody (148306, Biolegend, San Diego, CA, USA) for 20 min at 25 °C in the dark. Then, platelets were fixed in 1% paraformaldehyde solution and analyzed with a CytoFLEX flow cytometer (Beckman Coulter, Brea, CA, USA).

[6] = parameters: method as in PMID 21438588; settings: cited from earlier work
[7] = FeCl3-induced carotid artery thrombosis mouse model; format: in vivo, C57BL/6J mice
Method: The mouse model of carotid artery thrombosis induced by FeCl3 injury was performed and monitored by a stereoscopic fluorescence microscope as previously described. […] Mice were then anesthetized with a single dose of sodium pentobarbital (60 mg/kg, i.p., Sigma-Aldrich, St. Louis, MO, USA). Rhodamine 6G (83697, Sigma-Aldrich, St. Louis, MO, USA; 0.5 mg/mL) was injected into the right jugular vein to label platelets. The carotid artery (CA) was carefully exposed, and a black "U"-shaped plastic (3 mm) was inserted under the CA gently to block background fluorescence. Filter papers (1 × 2 mm) with 7.5% saturated FeCl3 solution were applied topically for 1 min, and thrombus formation in the injured CA was recorded in real time using a stereoscopic fluorescence microscope (M205FA, Leica, Wetzlar, Germany) for 12 min.

washed mouse platelets [8] = experiment: Thrombin-induced platelet aggregation; format: cell-based; settings: thrombin 0.02 U/mL, p > 0.05
Method: as §2, §3

Akt = experiment: ADP-induced phosphorylation of Akt, Western blot; format: cell-based, human; settings: 50 μM, Meg-01 cells
Method: as §4

washed mouse platelets [9] = experiment: ADP-induced platelet ATP release (luciferin/luciferase); format: cell-based; settings: ADP 5 μM
Method: as §2
(§5) The platelet aggregation and release assay were performed as previously reported. Washed mouse platelets were treated with isaridin E (6.25, 12.5, 25, 50, 100, or 200 μM) or vehicle or clopidogrel (20 μM) at 37 °C for 30 min, followed by stimulation with ADP (01905, Sigma-Aldrich, St. Louis, MO, USA, 5 μM), collagen (C7661, Sigma-Aldrich, St. Louis, MO, USA, 1 μg/mL) or thrombin (T6884, Sigma-Aldrich, St. Louis, MO, USA, 0.02 U/mL). The platelet aggregation was assessed using a lumi-aggregometer (700-2, Chrono-Log, Havertown, PA, USA) with a stirring speed of 1200 rpm at 37 °C. The release of ATP was simultaneously monitored using Luciferin/luciferase reagent (395, Chrono-Log, Havertown, PA, USA). Aggregation traces and ATP release traces were monitored continuously for at least 10 min.

Tail-bleeding assay = settings: for tail bleeding time versus vehicle control: single intragastric dose 3 h before, n = 5 mice
Method: Mice were assigned randomly to […] and intragastrically administrated with a single dose of vehicle, isaridin E (12.5, 25, 50, or 100 mg/kg), or clopidogrel (10 mg/kg) at 3 h before the cutting-tail experiment. Tails were transected at a distal margin of 5 mm and were immediately immersed into 10 mL of saline at 37 °C. The bleeding time was recorded as when the observed bleeding ceased.

washed mouse platelets [10] = experiment: ADP-induced platelet aggregation (light transmission aggregometry); format: cell-based; settings: ADP 5 μM; for ADP-induced maximum platelet aggregation, % of vehicle control: 30 min pretreatment
Method: as §2, §5

human neutrophils = system: human neutrophils; parameters: method as in PMID 23822585; settings: cited from earlier work
[11] = 100 mg/kg single gavage, n=5 mice
[12] = 100 mg/kg single intragastric administration
[13] = 100 mg/kg single oral gavage, n = 5 mice

Structure (SMILES): CC(C)CC1OC(=O)CCNC(=O)[C@H](C(C)C)N(C)C(=O)[C@H](C(C)C)N(C)C(=O)[C@H](Cc2ccccc2)NC(=O)[C@@H]2CCCN2C1=O (stereo partly drawn) [Isaridin E, cyclo-[(OH) (S)-HMPA^1-L-Pro^2-L-Phe^3-N-Me-L-Val^4-N-Me-L-Val^5-β-Ala^6(CO)]] (cyclo(F[NMeV][NMeV][βAla][ξLac(3-iPr)]P))
HCT (hematocrit) [1, 11]: 39.5 ± 1.4% | LY % (lymphocyte percentage) [1, 11]: 83.1 ± 2.5% | MCH (mean red blood cell hemoglobin) [1, 11]: 17.3 ± 0.4 pg | MCHC (mean red blood cell hemoglobin concentration) [1, 11]: 330 ± 8 g/L | MCV (mean red blood cell volume) [1, 11]: 51.1 ± 0.8 fL | MO % (monocyte percentage) [1, 11]: 2.7 ± 0.6% | MPV (mean platelet volume) [1, 11]: 5.3 ± 0.3 fL | NE % (neutrophil percentage) [1, 11]: 14.8 ± 2.2% | PLT (platelet count) [1, 11]: 1233 ± 65 10^9/L | RBC (red blood cell) [1, 11]: 7.8 ± 0.3 10^12/L | RDW (red cell distribution width) [1, 11]: 15.2 ± 0.5% | WBC (white blood cell) [1, 11]: 3.3 ± 0.5 10^9/L | hematological parameters versus NS- and vehicle-treated groups [1, 12]: no significant differences | maximum platelet aggregation in response to collagen (washed mouse platelets [2]): no significant differences | effect on general coagulation (APTT, TT, PT, FIB) [3, 12]: no obvious effects | ATPP [3, 13]: 32.4 ± 1.0 s | FIB (fibrinogen) [3, 13]: 3.1 ± 0.1 g/L | PT (prothrombin time) [3, 13]: 12.1 ± 0.4 s | TT (thrombin time) [3, 13]: 14.0 ± 0.8 s | cytotoxicity on washed platelets (washed mouse platelets [4]; 6.25-400 μM, LDH > 10% considered cytotoxic): no obvious cytotoxicity | LDH Release (%) (washed mouse platelets [4]; isaridin E 6.25 μM): 0.86 ± 0.03% | LDH Release (%) (washed mouse platelets [4]; isaridin E 12.5 μM): 0.89 ± 0.04% | LDH Release (%) (washed mouse platelets [4]; isaridin E 25 μM): 0.88 ± 0.03% | LDH Release (%) (washed mouse platelets [4]; isaridin E 50 μM): 0.86 ± 0.03% | LDH Release (%) (washed mouse platelets [4]; isaridin E 100 μM): 0.88 ± 0.04% | LDH Release (%) (washed mouse platelets [4]; isaridin E 200 μM): 0.84 ± 0.02% | LDH Release (%) (washed mouse platelets [4]; isaridin E 400 μM): 0.85 ± 0.02% | ADP-induced phosphorylation of PI3K (PI3K; 30 min, ADP 5 μM 5 min): significantly suppressed | total protein expression of PI3K (PI3K): without altering | percentage of CD62p expression on the platelet surface (washed mouse platelets [5]; 25 μM): 29.6 ± 1.0% | percentage of CD62p expression on the platelet surface (washed mouse platelets [5]; 50 μM): 16.0 ± 1.4% | percentage of CD62p expression on the platelet surface (washed mouse platelets [5]; 100 μM): 8.4 ± 1.0% | insecticidal activity [6]: insecticidal activity | maximum thrombus size ([7]; 12.5, 25, 50, or 100 mg/kg oral gavage at 1, 24, 48 h before FeCl3 injury, at 12 min, dose-dependent): reduced | time to the first thrombus formation ([7]; 12.5, 25, 50, or 100 mg/kg oral gavage at 1, 24, 48 h before FeCl3 injury, dose-dependent): significantly prolonged | antithrombotic effects relative to clopidogrel at 10 mg/kg ([7]; 50 or 100 mg/kg): comparable to that of clopidogrel | maximum platelet aggregation in response to thrombin (washed mouse platelets [8]): no significant differences | ADP-induced phosphorylation of Akt (Akt; 30 min, ADP 5 μM 5 min): significantly suppressed | total protein expression of Akt (Akt): without altering | ADP-induced platelet ATP release, % of vehicle control (washed mouse platelets [9]; 6.25 μM): 60.7 ± 7.9% | ADP-induced platelet ATP release, % of vehicle control (washed mouse platelets [9]; 12.5 μM): 31.7 ± 4.8% | IC50 (washed mouse platelets [9]; Mus musculus, Platelet, read-out: IC50 inhibiting ADP-induced platelet ATP release): 7.9 ± 1.1 µM | tail bleeding time versus vehicle control (Tail-bleeding assay; 12.5, 25, 50 or 100 mg/kg): no obvious effects | bleeding time compared with clopidogrel (10 mg/kg) (Tail-bleeding assay; isaridin E 12.5-100 mg/kg): significantly reduced | ADP-induced maximum platelet aggregation, % of vehicle control (washed mouse platelets [10]; 12.5 μM): 75.6 ± 2.6% | ADP-induced maximum platelet aggregation, % of vehicle control (washed mouse platelets [10]; 25 μM): 55.7 ± 4.8% | ADP-induced maximum platelet aggregation, % of vehicle control (washed mouse platelets [10]; 50 μM): 26.6 ± 3.5% | reduction of ADP-induced platelet aggregation versus vehicle control (washed mouse platelets [10]; 50 μM, extent similar to clopidogrel (20 μM)): 73.4 ± 3.5% | ADP-induced maximum platelet aggregation, % of vehicle control (washed mouse platelets [10]; 100 μM): 15.6 ± 2.9% | ADP-induced maximum platelet aggregation, % of vehicle control (washed mouse platelets [10]; 200 μM): 8.1 ± 0.8% | IC50 (washed mouse platelets [10]; Mus musculus, Platelet, read-out: IC50 inhibiting ADP-induced platelet aggregation): 26.1 ± 2.9 µM | cytotoxicity in human neutrophils (human neutrophils): without cytotoxicity | elastase release induced by FMLP (human neutrophils; human neutrophils): inhibiting | superoxide anion generation induced by FMLP (human neutrophils; human neutrophils): inhibiting

tail bleeding time versus vehicle control (Tail-bleeding assay; 10 mg/kg): significantly increased
Structure (SMILES): COC(=O)[C@H](c1ccccc1Cl)N1CCc2sccc2C1 [clopidogrel, reference compound]

Reference: publication PMC8780978, “Antiplatelet and Antithrombotic Effects of Isaridin E Isolated from the Marine-Derived Fungus via Downregulating the PI3K/Akt Signaling Pathway” (Marine Drugs, 2021)
